Results from US8637537B2, “Serine/threonine kinase inhibitors” (Genentech, Inc., priority 2011, dated 2014).
pIC50, pKi: −log10 of the molar value. Like-named read-outs stand apart in the source and are kept apart here.

Columns and labels:
[1] = target: T1, human recombinant GST-PAK1-KD protein (Homo sapiens, UniProt Q13153); experiment: GST-PAK1-KD (kinase domain) biochemical assay, microfluidic mobility shift
T1 construct: residues #249-545 of human PAK1, UniProtKP/Swiss Q13153; His6 (N); made in house; host or cells: Sf9 insect cells, pAcGP67 baculovirus expression vector

[2] = tested on: group I PAKs (PAK1-3) in EBC1 cells, MEK1 phosphorylation at S298; experiment: Cellular PAK assay: MEK1 (S298) phosphorylation in EBC1 cells, HTRF; assay type: cell-based; conditions: Homo sapiens, EBC-1, 2 h treatment, Example 66
Description: Group I PAKs (PAK1-3) are activated upon binding to the Rho GTPases, Rac1 and Cdc42. […] The inhibition of group I PAKs in EBC1 cells is assessed by detecting changes in the level of MEK1 phosphorylation at S298 using homogenous time-resolved fluorescence (HTRF). […] Following inhibitor treatment, cells were lysed with 25 μL of 1× cellular kinase lysis buffer (Cisbio) containing 1× cellular kinase blocking reagent (Cisbio). Cellular lysis was carried out at 4° C. for 2 h with constant shaking before lysate (16 μL) was transferred to white 384-well ProxiPlates™ (Perkin Elmer).

[3] = GST-PAK1-KD Inhibition Assay - Example 65, read-out: PAK1 inhibition Ki
[4] = Table I, PAK1 Ki class, read-out: Ki
[5] = Table II, PAK1 Ki class, read-out: Ki

T1 sequence (Q13153 249-545): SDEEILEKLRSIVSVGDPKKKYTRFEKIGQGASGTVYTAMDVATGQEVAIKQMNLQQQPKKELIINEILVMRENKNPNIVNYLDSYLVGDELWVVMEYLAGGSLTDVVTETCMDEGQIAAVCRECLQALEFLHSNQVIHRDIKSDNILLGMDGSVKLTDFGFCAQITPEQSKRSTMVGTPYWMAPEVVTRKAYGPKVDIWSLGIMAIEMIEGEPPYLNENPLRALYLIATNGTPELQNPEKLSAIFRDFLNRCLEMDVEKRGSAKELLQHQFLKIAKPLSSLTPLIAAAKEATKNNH

Compound	pKi [1, 3]	pKi [1, 4]	pIC50 [2]	pKi ([1]; Ki, Table I, PAK1 Ki class)	pKi [1, 5]
Cc1cc(Nc2cc(C3CC3)[nH]n2)nc(N[C@@H](C)c2ccc3[nH]ccc3c2)n1 [I-7, (S)—N^2-(1-(1H-indol-5-yl)ethyl)-N^4-(5-cyclopropyl-1H-pyrazol-3-yl)-6-methylpyrimidine-2,4-diamine]	7.87	> 7.30	6.67		
C[C@H](Nc1nccc(Nc2cc(C3CC3)[nH]n2)n1)c1ccc2[nH]ccc2c1 [I-8, (S)—N^2-(1-(1H-indol-5-yl)ethyl)-N^4-(5-cyclopropyl-1H-pyrazol-3-yl)pyrimidine-2,4-diamine]	7.82		6.88	> 7.30	
FC(F)(F)c1cc(Nc2cc(C3CC3)[nH]n2)nc(NCc2ccc3[nH]cnc3c2)n1 [I-11, N^2-((1H-benzo[d]imidazol-5-yl)methyl)-N^4-(5-cyclopropyl-1H-pyrazol-3-yl)-6-(trifluoromethyl)pyrimidine-2,4-diamine]	7.48	> 7.30	6.04		
c1cc(CNc2nccc(Nc3cc(C4CC4)[nH]n3)n2)c2nc[nH]c2c1 [I-39, N^2-((1H-benzo[d]imidazol-4-yl)methyl)-N^4-(5-cyclopropyl-1H-pyrazol-3-yl)pyrimidine-2,4-diamine]	7.13	6.60 to 7.30	6.69		
C[C@H](Nc1nccc(Nc2cc(CC3CC3)[nH]n2)n1)c1ccc2[nH]cnc2c1 [I-45, (S)—N^2-(1-(1H-benzo[d]imidazol-5-yl)ethyl)-N^4-(5-(cyclopropylmethyl)-1H-pyrazol-3-yl)pyrimidine-2,4-diamine]	7.39	> 7.30	5.92		
c1cc(CNc2nccc(Nc3cc(C4CC4)[nH]n3)n2)c2cn[nH]c2c1 [I-59, N^2-((1H-Indazol-4-yl)methyl)-N^4-(5-cyclopropyl-1H-pyrazol-3-yl)pyrimidine-2,4-diamine]	7.43	> 7.30	6.98		
C[C@H](Nc1nccc(Nc2cc([C@H]3CC3(F)F)[nH]n2)n1)c1ccc2[nH]cnc2c1 [I-62, N^2—((S)-1-(1H-benzo[d]imidazol-5-yl)ethyl)-N^4-(5-((R)-2,2-difluorocyclopropyl)-1H-pyrazol-3-yl)pyrimidine-2,4-diamine]	8.29	> 7.30	6.61		
Clc1cnc(NCc2ccc3[nH]cnc3c2Cl)nc1Nc1cc(C2CC2)[nH]n1 [I-106, 5-chloro-N^2-((4-chloro-1H-benzo[d]imidazol-5-yl)methyl)-N^4-(5-cyclopropyl-1H-pyrazol-3-yl)pyrimidine-2,4-diamine]	7.83	> 7.30	5.89		
Clc1c(CNc2nccc(Nc3cc(C4CCCO4)[nH]n3)n2)ccc2[nH]cnc12 (stereo not drawn) [I-109, N^2-((4-chloro-1H-benzo[d]imidazol-5-yl)methyl)-N^4-(5-(tetrahydrofuran-2-yl)-1H-pyrazol-3-yl)pyrimidine-2,4-diamine]	7.56	> 7.30	6.10		
C[C@H](Nc1nccc(Nc2cc(C3CCC3)[nH]n2)n1)c1ccc2[nH]ccc2c1 [I-114, (S)—N^2-(1-(1H-indol-5-yl)ethyl)-N^4-(5-cyclobutyl-1H-pyrazol-3-yl)pyrimidine-2,4-diamine]	8.17	> 7.30	6.88		

The next lines start with the values.

pKi [1, 3]	pKi [1, 4]	pIC50 [2]	pKi ([1]; Ki, Table I, PAK1 Ki class)	pKi [1, 5]	Compound
8.15		6.32		> 7.30	CN(Cc1ccc2[nH]cnc2c1Cl)c1nccc(Nc2cc(C3COC3)[nH]n2)n1 [II-2, N^2-[(4-Chloro-1H-benzimidazol-5-yl)methyl]-N^2-methyl-N4-[5-(oxetan-3-yl)-1H-pyrazol-3-yl]pyrimidine-2,4-diamine]
8.80		7.37		> 7.30	CCN(Cc1ccc2[nH]cnc2c1Cl)c1nccc(Nc2cc(C(C)C)[nH]n2)n1 [II-11, N^2-((4-Chloro-1H-benzo[d]imidazol-5-yl)methyl)-N^2-ethyl-N^4-(5-isopropyl-1H-pyrazol-3-yl)pyrimidine-2,4-diamine]
7.44		6.73		> 7.30	Fc1cnc(NCc2cc(Cl)cc3[nH]cnc23)nc1Nc1cc(C2CC2)[nH]n1 [II-23, N^2-((6-Chloro-1H-benzo[d]imidazol-4-yl)methyl)-N^4-(5-cyclopropyl-1H-pyrazol-3-yl)-5-fluoropyrimidine-2,4-diamine]
7.38		6.47		> 7.30	Cc1n[nH]c2cc(Cl)cc(CNc3ncc(F)c(Nc4cc(C5CC5)[nH]n4)n3)c12 [II-24, N^2-((6-Chloro-3-methyl-1H-indazol-4-yl)methyl)-N^4-(5-cyclopropyl-1H-pyrazol-3-yl)-5-fluoropyrimidine-2,4-diamine]
7.01		6.19		6.60 to 7.30	CCOc1cc(Nc2ccnc(N(C)Cc3ccc4[nH]cnc4c3Cl)n2)n[nH]1 [II-33, N^2-((4-Chloro-1H-benzo[d]imidazol-5-yl)methyl)-N^4-(5-ethoxy-1H-pyrazol-3-yl)-N^2-methylpyrimidine-2,4-diamine]
6.78		5.72		6.60 to 7.30	CN(Cc1ccc2nc[nH]c2c1Cl)c1nccc(Nc2cc(CCC#N)[nH]n2)n1 [II-45, 3-(3-(2-(((4-Chloro-3H-benzo[d]imidazol-5-yl)methyl)(methyl)amino)pyrimidin-4-ylamino)-1H-pyrazol-5-yl)propanenitrile]
8.60		7.18		> 7.30	CCN(Cc1ccc2[nH]cnc2c1Cl)c1nccc(Nc2cc([C@@H]3C[C@@H]3F)[nH]n2)n1 [II-51, N^2-((4-chloro-1H-benzo[d]imidazol-5-yl)methyl)-N^2-ethyl-N^4-(5-((1S,2S)-2-fluorocyclopropyl)-1H-pyrazol-3-yl)pyrimidine-2,4-diamine]
8.38		7.15		> 7.30	CC(CO)N(Cc1cc(F)cc2[nH]ncc12)c1nccc(Nc2cc(C3CC3)[nH]n2)n1 (stereo not drawn) [II-56, 2-((4-((5-cyclopropyl-1H-pyrazol-3-yl)amino)pyrimidin-2-yl)((6-fluoro-1H-indazol-4-yl)methyl)amino)propan-1-ol]
8.22		6.59		> 7.30	Fc1cc(CN(CCN2CCCC2)c2nccc(Nc3cc(C4CC4)[nH]n3)n2)c2cn[nH]c2c1 [II-59, N^4-(5-cyclopropyl-1H-pyrazol-3-yl)-N^2-((6-fluoro-1H-indazol-4-yl)methyl)-N^2-(2-(pyrrolidin-1-yl)ethyl)pyrimidine-2,4-diamine]
7.89		6.38		> 7.30	CN(C)CCN(Cc1cc(F)cc2[nH]ncc12)c1nccc(Nc2cc([C@@H]3C[C@@H]3F)[nH]n2)n1 [II-73, N^2-(2-(dimethylamino)ethyl)-N^2-((6-fluoro-1H-indazol-4-yl)methyl)-N^4-(5-((1S,2S)-2-fluorocyclopropyl)-1H-pyrazol-3-yl)pyrimidine-2,4-diamine]
7.87		6.72		> 7.30	COc1cc(CNc2nccc(Nc3cc(C4CC4)[nH]n3)n2)c2cn[nH]c2c1 [II-74, N^4-(5-cyclopropyl-1H-pyrazol-3-yl)-N^2-((6-methoxy-1H-indazol-4-yl)methyl)pyrimidine-2,4-diamine]
7.71		6.63		> 7.30	CN(Cc1ccc2[nH]cnc2c1Cl)c1nccc(Nc2cc(C(F)F)[nH]n2)n1 [II-81, N^2-((4-chloro-1H-benzo[d]imidazol-5-yl)methyl)-N^4-(5-(difluoromethyl)-1H-pyrazol-3-yl)-N^2-methylpyrimidine-2,4-diamine]
7.43		7.19		> 7.30	COCCN(Cc1cc(F)cc2[nH]ncc12)c1nccc(Nc2cc(C3CC3)[nH]n2)n1 [II-94, N^4-(5-cyclopropyl-1H-pyrazol-3-yl)-N^2-((6-fluoro-1H-indazol-4-yl)methyl)-N^2-(2-methoxyethyl)pyrimidine-2,4-diamine]
7.38		5.77		> 7.30	CN(Cc1ccc2[nH]cnc2c1)c1nc(Nc2cc(C3CC3)[nH]n2)cc(C(C)(C)O)n1 [II-97, 2-[2-[(1H-Benzoimidazol-5-ylmethyl)-methyl-amino]-6-(5-cyclopropyl-1H-pyrazol-3-ylamino)-pyrimidin-4-yl]-propan-2-ol]
7.20		5.82		6.60 to 7.30	COCCc1cc(Nc2ccnc(N(C)Cc3ccc4[nH]cnc4c3Cl)n2)n[nH]1 [II-102, N^2-((4-chloro-1H-benzo[d]imidazol-5-yl)methyl)-N^4-(5-(2-methoxyethyl)-1H-pyrazol-3-yl)-N^2-methylpyrimidine-2,4-diamine]
				> 7.30	CCN(Cc1ccc2[nH]cnc2c1Cl)c1ncc(F)c(Nc2cc([C@@H]3C[C@@H]3F)[nH]n2)n1 [II-111, N^2-((4-chloro-1H-benzo[d]imidazol-5-yl)methyl)-N^2-ethyl-5-fluoro-N^4-(5-((1S,2S)-2-fluorocyclopropyl)-1H-pyrazol-3-yl)pyrimidine-2,4-diamine]
				> 7.30	Clc1c[nH]c2cccc(CNc3nccc(Nc4cc(C5CC5)[nH]n4)n3)c12 [II-112, N^2-((3-chloro-1H--indol-4-yl)methyl)-N^4-(5-cyclopropyl-1H-pyrazol-3-yl)pyrimidine-2,4-diamine]
				> 7.30	CN(Cc1cc2nc[nH]c2cc1F)c1nccc(Nc2cc(C3CC3)[nH]n2)n1 [II-113, N^2-((6-fluoro-1H-benzo[d]imidazol-5-yl)methyl)-N^4-(5-cyclopropyl-1H-pyrazol-3-yl)-N^2-methylpyrimidine-2,4-diamine]
